The test system of one experiment is SK-BR-3 cells. Nature of the experiment: Measurement of cell growth inhibition (crystal violet staining method). To be noted: Homo sapiens; breast cancer SK-BR-3 cells, 72 hr culture with test substance. Type of experiment: cell-based.
Experiment [1] concerns the target human HSP90 alpha protein (HSP90 N-terminal protein, amino acids 2-236) (Homo sapiens (Human), UniProt P07900). Nature of the experiment: Measurement of HSP90-binding activity (AlphaScreen competitive assay, biotin-labeled geldanamycin). As to conditions: concentration inhibiting binding of biotin-labeled geldanamycin (40 nM) to purified HSP90 to 50% of control; read-out: HSP-binding activity IC50.

Results on 26 compounds are retold here after patent US8779142B2, “Azabicyclo compound and salt thereof” (Taiho Pharmaceutical Co., Ltd., priority 2009, dated 2014).

For the compound `CCc1cc(C(N)=O)ccc1-n1nc(C(F)(F)F)c2c(-n3cnc(-c4cnn(C)c4)c3)ccnc21` [Example 155, 3-Ethyl-4-{4-(4-(1-methyl-1H-pyrazol-4-yl)-1H-imidazol-1-yl)-3-(trifluoromethyl)-1H-pyrazolo[3,4-b]pyridin-1-yl}benzamide], the IC50 with SK-BR-3 cells was determined as 40 nM; in experiment [1] it was 110 nM.

In the case of `CCCc1cc(C(N)=O)ccc1-n1nc(C(F)(F)F)c2c(-n3cnc(-c4cnn(C)c4)c3)ccnc21` [Example 156, 4-{4-(4-(1-Methyl-1H-pyrazol-4-yl)-1H-imidazol-1-yl)-3-(trifluoromethyl)-1H-pyrazolo[3,4-b]pyridin-1-yl}-3-propylbenzamide], the IC50 turned out to be 40 nM in the experiment on SK-BR-3 cells and 70 nM in experiment [1].

Regarding `Cn1cc(-c2cn(-c3ccnc4c3c(C(F)(F)F)nn4-c3ccc(C(N)=O)c(N)c3)cn2)cn1` [Example 157, 2-Amino-4-{4-(4-(1-methyl-1H-pyrazol-4-yl)-1H-imidazol-1-yl)-3-(trifluoromethyl)-1H-pyrazolo[3,4-b]pyridin-1-yl}benzamide], the IC50 came out at 190 nM in the experiment on SK-BR-3 cells and 130 nM in experiment [1].

With `Cn1cc(-c2cn(-c3ccnc4c3c(C(F)(F)F)nn4-c3ccc(C(N)=O)cc3N)cn2)cn1` [Example 158, 3-Amino-4-{4-(4-(1-methyl-1H-pyrazol-4-yl)-1H-imidazol-1-yl)-3-(trifluoromethyl)-1H-pyrazolo[3,4-b]pyridin-1-yl}benzamide], the IC50 with SK-BR-3 cells was determined as 200 nM; in experiment [1] it was 100 nM.

In the case of `CN(C)c1cc(C(N)=O)ccc1-n1nc(C(F)(F)F)c2c(-n3cnc(-c4cnn(C)c4)c3)ccnc21` [Example 159, 3-(Dimethylamino)-4-{4-(4-(1-methyl-1H-pyrazol-4-yl)-1H-imidazol-1-yl)-3-(trifluoromethyl)-1H-pyrazolo[3,4-b]pyridin-1-yl}benzamide], the IC50 in the experiment on SK-BR-3 cells turned out to be 290 nM; in experiment [1] it was 210 nM.

As to `CC(C)Nc1cc(-n2nc(C(F)(F)F)c3c(-n4cnc(-c5cnn(C)c5)c4)ccnc32)ccc1C(N)=O` [Example 160, 2-(Isopropylamino)-4-{4-(4-(1-methyl-1H-pyrazol-4-yl)-1H-imidazol-1-yl)-3-(trifluoromethyl)-1H-pyrazolo[3,4-b]pyridin-1-yl}benzamide], the IC50 was determined as 20 nM with SK-BR-3 cells and 160 nM in experiment [1].

As for `CCNc1cc(-n2nc(C(F)(F)F)c3c(-n4cnc(-c5cnn(C)c5)c4)ccnc32)ccc1C(N)=O` [Example 161, 2-(Ethylamino)-4-{4-(4-(1-methyl-1H-pyrazol-4-yl)-1H-imidazol-1-yl)-3-(trifluoromethyl)-1H-pyrazolo[3,4-b]pyridin-1-yl}benzamide], the IC50 in the experiment on SK-BR-3 cells worked out at 60 nM; in experiment [1], 170 nM.

With `CCNc1cc(C(N)=O)ccc1-n1nc(C(F)(F)F)c2c(-n3cnc(-c4cnn(C)c4)c3)ccnc21` [Example 162, 3-(Ethylamino)-4-{4-(4-(1-methyl-1H-pyrazol-4-yl)-1H-imidazol-1-yl)-3-(trifluoromethyl)-1H-pyrazolo[3,4-b]pyridin-1-yl}benzamide], the values for the IC50 (with SK-BR-3 cells; in experiment [1]) were 90 nM and 110 nM, respectively.

Consider `CCCNc1cc(C(N)=O)ccc1-n1nc(C(F)(F)F)c2c(-n3cnc(-c4cnn(C)c4)c3)ccnc21` [Example 163, 4-{4-(4-(1-Methyl-1H-pyrazol-4-yl)-1H-imidazol-1-yl)-3-(trifluoromethyl)-1H-pyrazolo[3,4-b]pyridin-1-yl}-3-(propylamino)benzamide], for which the IC50 in the experiment with SK-BR-3 cells was 60 nM; in experiment [1], 100 nM.

Consider `CC(C)Nc1cc(C(N)=O)ccc1-n1nc(C(F)(F)F)c2c(-n3cnc(-c4cnn(C)c4)c3)ccnc21` [Example 164, 3-(Isopropylamino)-4-{4-(4-(1-methyl-1H-pyrazol-4-yl)-1H-imidazol-1-yl)-3-(trifluoromethyl)-1H-pyrazolo[3,4-b]pyridin-1-yl}benzamide], for which the IC50 in the experiment with SK-BR-3 cells amounted to 70 nM; in experiment [1] it was 110 nM.

Turning to `Cn1cc(-c2cn(-c3ccnc4c3c(C(F)(F)F)nn4-c3ccc(C(N)=O)cc3NC3CCC3)cn2)cn1` [Example 165, 3-(Cyclobutylamino)-4-{4-(4-(1-methyl-1H-pyrazol-4-yl)-1H-imidazol-1-yl)-3-(trifluoromethyl)-1H-pyrazolo[3,4-b]pyridin-1-yl}benzamide], the IC50 in the experiment with SK-BR-3 cells is 70 nM; in experiment [1], 120 nM.

On to `Cn1cc(-c2cn(-c3ccnc4c3c(C(F)(F)F)nn4-c3ccc(C(N)=O)cc3NC3CCCC3)cn2)cn1` [Example 166, 3-(Cyclopentylamino)-4-{4-(4-(1-methyl-1H-pyrazol-4-yl)-1H-imidazol-1-yl)-3-(trifluoromethyl)-1H-pyrazolo[3,4-b]pyridin-1-yl}benzamide], for which the IC50 was found to be 110 nM in the experiment on SK-BR-3 cells and 140 nM in experiment [1].

Regarding `Cn1cc(-c2cn(-c3ccnc4c3c(C(F)(F)F)nn4-c3ccc(C(N)=O)cc3NCC(F)F)cn2)cn1` [Example 167, 3-(2,2-Difluoroethylamino)-4-{4-(4-(1-methyl-1H-pyrazol-4-yl)-1H-imidazol-1-yl)-3-(trifluoromethyl)-1H-pyrazolo[3,4-b]pyridin-1-yl}benzamide], the IC50 with SK-BR-3 cells amounted to 80 nM; in experiment [1], 100 nM.

For `COCCNc1cc(C(N)=O)ccc1-n1nc(C(F)(F)F)c2c(-n3cnc(-c4cnn(C)c4)c3)ccnc21` [Example 168, 3-(2-Methoxyethylamino)-4-{4-(4-(1-methyl-1H-pyrazol-4-yl)-1H-imidazol-1-yl)-3-(trifluoromethyl)-1H-pyrazolo[3,4-b]pyridin-1-yl}benzamide], the IC50 came out at 60 nM in the experiment with SK-BR-3 cells and 70 nM in experiment [1].

For the compound `Cn1cc(-c2cn(-c3ccnc4c3c(C(F)(F)F)nn4-c3ccc(C(N)=O)cc3C#N)cn2)cn1` [Example 169, 3-Cyano-4-{4-(4-(1-methyl-1H-pyrazol-4-yl)-1H-imidazol-1-yl)-3-(trifluoromethyl)-1H-pyrazolo[3,4-b]pyridin-1-yl}benzamide], the IC50 came out at 270 nM in the experiment with SK-BR-3 cells and 230 nM in experiment [1].

Turning to `Cn1cc(-c2cn(-c3ccnc4c3c(C(F)(F)F)nn4-c3ccc(C(N)=O)cc3Br)cn2)cn1` [Example 170, 3-Bromo-4-{4-(4-(1-methyl-1H-pyrazol-4-yl)-1H-imidazol-1-yl)-3-(trifluoromethyl)-1H-pyrazolo[3,4-b]pyridin-1-yl}benzamide], the figures for the IC50 (in the experiment with SK-BR-3 cells; in experiment [1]) were 370 nM and 210 nM, respectively.

`Cn1cc(-c2cn(-c3ccnc4c3c(C(F)(F)F)nn4-c3ccc(C(N)=O)cc3F)cn2)cn1` [Example 171, 3-Fluoro-4-{4-(4-(1-methyl-1H-pyrazol-4-yl)-1H-imidazol-1-yl)-3-(trifluoromethyl)-1H-pyrazolo[3,4-b]pyridin-1-yl}benzamide]: the half-maximal inhibitory concentration (IC50) is 130 nM in the experiment with SK-BR-3 cells and 100 nM in experiment [1].

Consider `Cn1cc(-c2cn(-c3ccnc4c3c(C(F)(F)F)nn4-c3ccc(C(N)=O)cc3-c3ccccc3)cn2)cn1` [Example 172, 6-{4-(4-(1-Methyl-1H-pyrazol-4-yl)-1H-imidazol-1-yl)-3-(trifluoromethyl)-1H-pyrazolo[3,4-b]pyridin-1-yl}biphenyl-3-carboxamide], for which the IC50 was determined as 870 nM with SK-BR-3 cells and 1070 nM in experiment [1].

For `Cn1cc(-c2cn(-c3ccnc4c3c(C(F)(F)F)nn4-c3ccc(C(N)=O)cc3C3CC3)cn2)cn1` [Example 173, 3-(Cyclopropyl)-4-{4-(4-(1-methyl-1H-pyrazol-4-yl)-1H-imidazol-1-yl)-3-(trifluoromethyl)-1H-pyrazolo[3,4-b]pyridin-1-yl}benzamide], the IC50 in the experiment on SK-BR-3 cells amounted to 80 nM; in experiment [1], 120 nM.

For `C=C(C)c1cc(C(N)=O)ccc1-n1nc(C(F)(F)F)c2c(-n3cnc(-c4cnn(C)c4)c3)ccnc21` [Example 174, 4-{4-(4-(1-Methyl-1H-pyrazol-4-yl)-1H-imidazol-1-yl)-3-(trifluoromethyl)-1H-pyrazolo[3,4-b]pyridin-1-yl}-3-(prop-1-en-2-yl)benzamide], the 50% inhibitory concentration (IC50) stood at 380 nM in the experiment with SK-BR-3 cells and 320 nM in experiment [1].

With `Cc1cc(C(N)=O)ccc1-n1nc(C(F)(F)F)c2c(-n3cnc(-c4cccnc4)c3)ccnc21` [Example 175, 3-Methyl-4-{4-(4-(pyridin-3-yl)-1H-imidazol-1-yl)-3-(trifluoromethyl)-1H-pyrazolo[3,4-b]pyridin-1-yl}benzamide], the half-inhibitory concentration (IC50) with SK-BR-3 cells was determined as 290 nM; in experiment [1], 370 nM.

On to `NC(=O)c1ccc(-n2nc(C(F)(F)F)c3c(-n4cnc(-c5cccnc5)c4)ccnc32)cc1N` [Example 176, 2-Amino-4-{4-(4-(pyridin-3-yl)-1H-imidazol-1-yl)-3-(trifluoromethyl)-1H-pyrazolo[3,4-b]pyridin-1-yl}benzamide], for which the IC50 is 410 nM in the experiment with SK-BR-3 cells and 420 nM in experiment [1].

Take `NC(=O)c1ccc(-n2nc(C(F)(F)F)c3c(-n4cnc(-c5cccnc5)c4)ccnc32)c(N)c1` [Example 177, 3-Amino-4-{4-(4-(pyridin-3-yl)-1H-imidazol-1-yl)-3-(trifluoromethyl)-1H-pyrazolo[3,4-b]pyridin-1-yl}benzamide]: the figures for the IC50 (with SK-BR-3 cells; in experiment [1]) were 390 nM and 270 nM, respectively.

For `CCNc1cc(-n2nc(C(F)(F)F)c3c(-n4cnc(-c5cccnc5)c4)ccnc32)ccc1C(N)=O` [Example 178, 2-(Ethylamino)-4-{4-(4-(pyridin-3-yl)-1H-imidazol-1-yl)-3-(trifluoromethyl)-1H-pyrazolo[3,4-b]pyridin-1-yl}benzamide], the IC50 in the experiment on SK-BR-3 cells came out at 80 nM; in experiment [1] it was 530 nM.

As to `CC(C)Nc1cc(-n2nc(C(F)(F)F)c3c(-n4cnc(-c5cccnc5)c4)ccnc32)ccc1C(N)=O` [Example 179, 2-(Isopropylamino)-4-{4-(4-(pyridin-3-yl)-1H-imidazol-1-yl)-3-(trifluoromethyl)-1H-pyrazolo[3,4-b]pyridin-1-yl}benzamide], the 50% inhibitory concentration (IC50) turned out to be 70 nM with SK-BR-3 cells and 380 nM in experiment [1].

With `CCNc1cc(C(N)=O)ccc1-n1nc(C(F)(F)F)c2c(-n3cnc(-c4cccnc4)c3)ccnc21` [Example 180, 3-(Ethylamino)-4-{4-(4-(pyridin-3-yl)-1H-imidazol-1-yl)-3-(trifluoromethyl)-1H-pyrazolo[3,4-b]pyridin-1-yl}benzamide], the IC50 in the experiment with SK-BR-3 cells came to 140 nM; in experiment [1], 190 nM.
